Laboratory results taken from patent US11767296B2, “Heteroaryl compounds as kinase inhibitor” (FUJIAN HAIXI PHARMACEUTICALS CO., LTD, priority 2018, dated 2023).

What was measured:
[1] = system: MC-38 transplanted tumors; experiment: Animal pharmacodynamics experiment: MC-38 transplanted tumors in C57 mice; type: in vivo; details: 2 weeks; for inhibition in vivo at 30 mg/kg: Mus musculus, MC-38, po, 336 h, compound alone, 30 mg/kg intragastrically daily, read-out: inhibition ratio (tumor size, MC-38 transplanted tumors); for inhibition ratio (tumor size, MC-38 transplanted tumors): compound 30 mg/kg intragastrically daily + anti-PD1 10 mg/kg i.p. once every 3 days
Protocol: Example 55: Animal Pharmacodynamics Experiment
In this study. MC-38 cell lines were inoculated in C57 mice
Experimental animal: C57 mice, male, 5-6 weeks old (18-22 g)
Inoculation: 2×10^6/0.1 mL, Matrigel is added in 3:1 ratio
PD1: InVivoMAb anti-mouse PD-1 (CD279). BioXCell
Group: On day 4 after inoculating, all the mice were divided into 13 groups, respectively model group, the anti-PD1 2 mg/kg group, anti-PD110 mg/kg group, testing compounds alone, and the tested compound combine with anti-PD1 10 mg/kg. Compounds were intragastrically administered daily at a dose of 30 mg/kg and anti-PD1 was intraperitoneally injected once every 3 days. The drug was administered continuously for 2 weeks. In model group, 80% glycerol+20% CMC-Na was given daily.
Results: The experimental results of anti-PD1 combined with the compounds prepared in the representative example 3-52 on the inhibition of tumor size of MC-38 transplanted tumors are as follows: […]

NFS-60 cells = experiment: NFS-60 cell assay (CCK proliferation, M-CSF stimulated); type: cell-based; details: Mus musculus, compound 0.5 uM, 72 h, 40 ng/mL M-CSF, read-out: inhibition ratio % (NFS-60 cell proliferation)
Protocol: Example 54: NFS-60 Cell Assay
1. Experimental Materials
Mouse Myelogenous Leukemia Cells (NFS-60)
Using DMSO to dissolve, and the required concentration was prepared with full culture medium without factors.
Penicillin-streptomycin: TRANS
Mouse M-CSF/CSF-1 Protein: Sino Biological Inc, No. 51112-MNAH
M-CSF: Qilu Pharmaceutical co., Ltd.
The logarithmic growth phase of NFS-60 cells (1640+10% FBS+40 ng/ml M-CSF+1% Penicillin-streptomycin) were centrifuged (1000 r/min) and cultured in a factor-free medium at 37° C., 5% CO2 for 24 hours. Centrifugating (1000 r/min), the culture medium was replaced by new culture medium including 40 ng/mL factors, and inoculated on 96-well plate by 2*10^4 cells/mL, 100 μL/hole. After 16 hours, the tested compounds were added 10 μL/hole, 3 duplicate holes per compound, 37° C., 5% CO2, continue to cultured for 72 h. Then 10 μL CCK reagent was added to each hole. After incubation for 4 hours, the absorbance of each hole was measured at 450 nm wavelength. According to Formula: Inhibitory rate (%)=(1-OD value of test pore/OD value of solvent control pore)×100% 3. Experimental Results The experimental results of the inhibition of NFS-60 cell proliferation by the compounds prepared in Example 3-52, 0.5 uM, are shown in the following table: […]

CSF-1R = target: T1, CSF-1R (Homo sapiens, UniProt P07333); experiment: CSF-1R kinase assay (HTRF kinEASE TK); type: biochemical; details: ATP 2.5 uM, enzyme 0.012 ng/ul, read-out: In vitro inhibitory activity of CSF-1R IC50
T1 construct: purchased Invitrogen PV3249
T1 sequence (P07333 20-972): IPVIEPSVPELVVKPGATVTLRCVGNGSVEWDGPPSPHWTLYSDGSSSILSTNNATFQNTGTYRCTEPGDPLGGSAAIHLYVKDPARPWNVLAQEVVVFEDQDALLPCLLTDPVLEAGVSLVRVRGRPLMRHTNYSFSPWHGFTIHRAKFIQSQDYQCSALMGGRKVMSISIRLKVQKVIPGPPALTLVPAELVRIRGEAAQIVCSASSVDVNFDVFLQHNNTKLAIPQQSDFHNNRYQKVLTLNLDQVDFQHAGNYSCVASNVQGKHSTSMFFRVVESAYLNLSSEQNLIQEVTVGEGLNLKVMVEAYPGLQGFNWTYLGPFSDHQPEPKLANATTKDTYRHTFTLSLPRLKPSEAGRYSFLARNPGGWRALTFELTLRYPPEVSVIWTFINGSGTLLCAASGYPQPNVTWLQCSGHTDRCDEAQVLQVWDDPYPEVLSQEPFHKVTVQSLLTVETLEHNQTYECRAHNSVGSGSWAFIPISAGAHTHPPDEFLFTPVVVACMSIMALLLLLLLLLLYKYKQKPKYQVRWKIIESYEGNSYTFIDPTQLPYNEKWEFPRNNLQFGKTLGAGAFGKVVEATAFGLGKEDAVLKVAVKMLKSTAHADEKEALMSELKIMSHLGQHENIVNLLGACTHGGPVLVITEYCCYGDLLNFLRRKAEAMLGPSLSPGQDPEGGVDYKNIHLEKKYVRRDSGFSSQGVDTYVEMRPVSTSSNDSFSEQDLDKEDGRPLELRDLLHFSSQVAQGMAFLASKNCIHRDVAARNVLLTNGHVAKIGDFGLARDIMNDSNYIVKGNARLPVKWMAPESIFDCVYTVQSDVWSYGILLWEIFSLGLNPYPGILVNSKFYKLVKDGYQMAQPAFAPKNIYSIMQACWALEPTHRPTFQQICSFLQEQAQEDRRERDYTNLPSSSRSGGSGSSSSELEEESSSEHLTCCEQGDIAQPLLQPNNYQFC
Protocol: Example 53: CSF-1R Kinase Assay
I. Materials and Instruments
• 2104 EnVision® Multilabel Reader (PerkinElmer) • OptiPlate-384, White Opaque 384-well MicroPlate (Cat.6007290, PerkinElmer) • HTRF kinEASE TK (Cat.62TKOPEC, Cisbio) • CSF-1R(Cat. PV3249, Invitrogen) • ATP 10 mM (Cat. PV3227, Invitrogen) • DTT 1 M (Cat. D5545, Sigma) • MgCl2 1 M (Cat. M8266, Sigma) • MnCl2 1 M (Cat.244589. Sigma)
II. Experimental Procedure
Substrate-TK and ATP were diluted to 5 times of the reaction concentration by 1×Kinase Buffer. CSF1R enzyme was diluted to 5×enzyme solution by 1×kinase buffer. Sa-XL665 was diluted to 4×Sa-XL665 solution by Detection Buffer. 100×TK-Ab-Cryptate Solution TK-Ab-Cryptate was diluted to 100×TK-Ab-Cryptate solution by Detection Buffer. 2. Experimental Procedure After all reagents had been prepared according to the above method, except enzymes, the sample was added after equilibrium to room temperature. • a. Firstly, 2.5% DMSO solution was prepared by using 1×kinase buffer (the high concentration of DMSO will affect the reaction and control the final concentration of DMSO to 1%). Then the compounds were diluted by 2.5% DMSO solution corresponding to the enzyme. The screening concentration of the compounds was 4 times gradient dilution from 1000 nM, and 8 concentrations. In addition to the control pore, 4 microlitres of diluted solution containing 2.5% DMSO were added to the reaction pore and 4 microlitres of previously prepared solution containing 2.5% DMSO were added to the control pore. • b. 2 microlitres of previously prepared TK-biotin substrate solution was added to all reaction pore (the amount of substrate used for enzyme screening is shown in Table 15). • c. Adding 2 microlitres of CSF1R enzyme solution of corresponding concentration (the amount of enzyme is shown in Table 15) to all reaction pore except negative pore. The negative pore is supplemented with 2 microlitres of enzyme corresponding to 1 xkinase buffer. After mixing, the compound and enzyme can be fully combined by incubating at room temperature for 10 minutes. • d. Enzyme reaction was initiated by adding 2 microlitres ATP solution of corresponding concentration to all reaction pore. The reaction time was 30 minutes (the corresponding ATP concentration and reaction time at enzyme screening were shown in Table 15). • e. Preparing the test solution 5 minutes before the end of kinase reaction. Streptavidin-XL665 and TK antibody europium cryptate (1:100) were prepared with detection buffer in the kit (the corresponding concentration of detection reagent for enzyme screening is shown in Table 15). • f. After the kinase reaction, 5 microlitres of diluted Streptavidin-XL665 were added to all reaction pore, mixing, and then the diluted TK antibody europium cryptate solution was added immediately. • g. After 1 hour reaction at room temperature, the fluorescence signals (320 nm stimulation, 665 nm, 615 nm emission) were detected by ENVISION (Perkinelmer) instrument. The inhibition rate of each pore was calculated by full active pore and background signal pore, and the average value of complex pore was obtained. Meanwhile, the half inhibitory activity (IC50) of each compound was fitted by professional drawing analysis software PRISM 5.0. The Flow Chart of the Experiment is as Follows:
3. Data Analysis Emission Ratio (ER)=665 nm Emission signal/615 nm Emission signal Inhibitory rate=(ERpositive−ERsample)/(ERpositive−ERnegative)*100% Using Graphpad Prism 5 and log (inhibitor) vs. normalized response to fit IC50 curve and calculate IC50 value. The IC50 data of the compounds prepared in Representative Examples 3-52 are as follows (Table 18): […]

Compound: C[C@@H](Oc1cc(-c2cnn(C)c2)cnc1N)c1cccc(NC(=O)c2cccc(N(C)C)c2)c1 [Compound 178, (R)-N-(3-(1-((2-amino-5-(1-methyl-1H-pyrazol-4-yl)pyridin-3-yl)oxy)ethyl)phenyl)-3-(dimethylamino)benzamide]
- inhibition in vivo at 30 mg/kg [1]: 10 to 30%
- inhibition ratio (tumor size, MC-38 transplanted tumors) [1]: +++ (+++: ≥30%)
- inhibition at 0.5 µM (NFS-60 cells): ≥ 50%
- IC50 (CSF-1R): ≤ 0.05 µM

Compound: CSc1cc(C(=O)Nc2cccc([C@@H](C)Oc3cc(-c4cnn(C)c4)cnc3N)c2)ccc1C [Compound 182, (R)-N-(3-(1-((2-amino-5-(1-methyl-1H-pyrazol-4-yl)pyridin-3-yl)oxy)ethyl)phenyl)-4-methyl-3-(methylthio)benzamide]
- inhibition in vivo at 30 mg/kg [1]: 10 to 30%
- inhibition ratio (tumor size, MC-38 transplanted tumors) [1]: +++ (+++: ≥30%)
- inhibition at 0.5 µM (NFS-60 cells): ≥ 50%
- IC50 (CSF-1R): ≤ 0.05 µM

Compound: C[C@@H](Oc1cc(Cl)cnc1N)c1cccc(NC(=O)c2cccc(S(C)(=O)=O)c2)c1 [Compound 78, (R)-N-(3-(1-((2-amino-5-chloropyridin-3-yl)oxy)ethyl)-phenyl)-3-(methylsulfonyl)-benzamide]
- inhibition in vivo at 30 mg/kg [1]: < 10%
- inhibition ratio (tumor size, MC-38 transplanted tumors) [1]: ++ (++: 10%-30%)
- IC50 (CSF-1R): ≤ 0.05 µM

Compound: Cc1ccc(C(=O)Nc2cccc([C@@H](C)Oc3cc(-c4cnn(C)c4)cnc3N)c2)cc1N(C)C [Compound 179, (R)-N-(3-(1-((2-amino-5-(1-methyl-1H-pyrazol-4-yl)pyridin-3-yl)oxy)ethyl)phenyl)-3-(dimethylamino)-4-methylbenzamide]
- inhibition in vivo at 30 mg/kg [1]: 10 to 30%
- inhibition ratio (tumor size, MC-38 transplanted tumors) [1]: +++ (+++: ≥30%)
- inhibition at 0.5 µM (NFS-60 cells): ≥ 50%
- IC50 (CSF-1R): ≤ 0.05 µM

Compound: Cc1cccc(C(=O)Nc2cccc([C@@H](C)Oc3cc(Cl)cnc3N)c2)c1 [Compound 72, (R)-N-(3-(1-((2-amino-5-chloropyridin-3-yl)oxy)ethyl)-phenyl)-3-methylbenzamide]
- inhibition in vivo at 30 mg/kg [1]: < 10%
- inhibition ratio (tumor size, MC-38 transplanted tumors) [1]: ++ (++: 10%-30%)
- inhibition at 0.5 µM (NFS-60 cells): ≥ 50%
- IC50 (CSF-1R): ≤ 0.05 µM

Compound: C[C@@H](Oc1cc(Cl)cnc1N)c1cccc(NC(=O)c2cccc(C3CC3)c2)c1 [Compound 86, (R)-N-(3-(1-((2-amino-5-chloropyridin-3-yl)oxy)ethyl)-phenyl)-3-cyclopropylbenzamide]
- inhibition in vivo at 30 mg/kg [1]: < 10%
- inhibition ratio (tumor size, MC-38 transplanted tumors) [1]: +++ (+++: ≥30%)
- IC50 (CSF-1R): ≤ 0.05 µM
